Drawing on PubChem BioAssay (NCI), this text covers TGI for ten compounds.

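48-hour exposure; five concentrations; linearly interpolated endpoints. The concentration for full growth arrest is given as TGI.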

Among the test systems are COLO 205 colon; LOX IMVI melanoma; KM12 colon; HOP-62 NSCLC; NCI-H460 lung; CAKI-1 renal; PC-3 prostate; NCI-H23 lung; T-47D breast; SR leukemia.
What all share (test): NCI tumour cell line growth inhibition, 48 h

As to `C=C(CCC(C(=O)O)C1CCC2(C)C3=C(CCC12C)C1(C)CCC(O)C(C)(C)C1CC3)C(C)C` (stereo not given), the TGI in the assay with COLO 205 colon was greater than 100 µM; in the assay on LOX IMVI melanoma it was 89 µM; in the assay with KM12 colon it was 22.6 µM; in the assay on HOP-62 NSCLC, greater than 100 µM; in the assay on NCI-H460 lung, 37.5 µM; with CAKI-1 renal, greater than 100 µM. Besides, the TGI was greater than 100 µM in the assay on PC-3 prostate, greater than 100 µM in the assay with NCI-H23 lung, greater than 100 µM with T-47D breast and 27.2 µM in the assay on SR leukemia.
`COC(=O)c1ccc(OCc2ccc3nc(-c4ccccc4)c(Cl)nc3c2)cc1`: the TGI in the assay with COLO 205 colon was greater than 100 µM; with LOX IMVI melanoma it was greater than 100 µM; in the assay on KM12 colon, greater than 100 µM; in the assay with HOP-62 NSCLC, greater than 100 µM; in the assay on NCI-H460 lung, greater than 100 µM; with CAKI-1 renal, 69.9 µM. The TGI in the assay on PC-3 prostate, in the assay with NCI-H23 lung, with T-47D breast and in the assay with SR leukemia was greater than 100 µM each time.
Turning to `COC(=O)C(Cc1ccccc1)NC(=O)CCCNC(=O)OCc1ccccc1` (stereo not given), the TGI in the assay on COLO 205 colon, in the assay on LOX IMVI melanoma, with KM12 colon, in the assay on HOP-62 NSCLC, in the assay with NCI-H460 lung and with CAKI-1 renal was greater than 100 µM in each case. For the same compound, the TGI in the assay on PC-3 prostate, with NCI-H23 lung, in the assay with T-47D breast and in the assay on SR leukemia was greater than 100 µM in each case.
On to `CCOP(=O)(OCC)C(F)(F)CC1CCCCC1`, for which the TGI in the assay on COLO 205 colon, with LOX IMVI melanoma, with KM12 colon, with HOP-62 NSCLC, in the assay with NCI-H460 lung and in the assay on CAKI-1 renal was greater than 10 µM throughout. For the same compound, the TGI with PC-3 prostate, in the assay on NCI-H23 lung, in the assay with T-47D breast and in the assay on SR leukemia was greater than 10 µM in each case.
As for `C=CCOn1c(C=C)nc2c(C)cccc21`, the TGI was found to be 3.6 µM in the assay on COLO 205 colon; 12.2 µM with LOX IMVI melanoma; 13 µM in the assay with KM12 colon; 22 µM with HOP-62 NSCLC; 5.04 µM in the assay on NCI-H460 lung; 5.25 µM in the assay with CAKI-1 renal. Besides, the TGI in the assay on PC-3 prostate is 12.1 µM; in the assay on NCI-H23 lung, 24.1 µM; in the assay with T-47D breast, 7.25 µM; in the assay with SR leukemia, 12.6 µM.
For the compound `CSC1(SC)CCCCCCCCCCC1`, the TGI in the assay on COLO 205 colon was 33.9 µM; with LOX IMVI melanoma, 36.4 µM; with KM12 colon, greater than 100 µM; with HOP-62 NSCLC, greater than 100 µM; with NCI-H460 lung it was greater than 100 µM; with CAKI-1 renal, greater than 100 µM. Moreover, the TGI was greater than 100 µM with PC-3 prostate, greater than 100 µM in the assay with NCI-H23 lung, 73.3 µM in the assay with T-47D breast and greater than 100 µM in the assay on SR leukemia.
With `CCCCCCCC(CC(=O)O)OC(=O)CC(CCCCCCC)OC1OC(C)C(O)C(O)C1OC1OC(C)C(O)C(O)C1O` (stereo not given), the TGI in the assay with COLO 205 colon, in the assay on LOX IMVI melanoma, in the assay with KM12 colon, with HOP-62 NSCLC, in the assay with NCI-H460 lung and in the assay on CAKI-1 renal was greater than 100 µM in each case. For the same compound, the TGI with PC-3 prostate, in the assay with NCI-H23 lung, in the assay on T-47D breast and with SR leukemia was greater than 100 µM throughout.
With `c1csc(-c2ccc(-c3ccc(-c4cccs4)s3)s2)c1`, the TGI in the assay on COLO 205 colon, with LOX IMVI melanoma, in the assay with KM12 colon, in the assay with HOP-62 NSCLC, with NCI-H460 lung and in the assay on CAKI-1 renal was greater than 100 µM each time. Further, the TGI in the assay with PC-3 prostate, in the assay with NCI-H23 lung, with T-47D breast and in the assay with SR leukemia was greater than 100 µM throughout.
In the case of `CC(=O)c1nccc2c1c(C)nc1ccccc12`, the TGI with COLO 205 colon, in the assay on LOX IMVI melanoma, in the assay with KM12 colon, in the assay on HOP-62 NSCLC, in the assay with NCI-H460 lung and in the assay on CAKI-1 renal was greater than 100 µM in each case. The TGI in the assay on PC-3 prostate, in the assay with NCI-H23 lung, in the assay with T-47D breast and in the assay with SR leukemia was greater than 100 µM throughout.
Take `O=C1O/C(=C\c2ccc(O)cc2)C(c2ccc(O)c(Cl)c2)=C1Br`: the TGI in the assay with COLO 205 colon stood at 33.4 µM; in the assay on LOX IMVI melanoma, 61.2 µM; with KM12 colon, 30.3 µM; with HOP-62 NSCLC, 35.3 µM; with NCI-H460 lung, 38.7 µM; in the assay with CAKI-1 renal it was 49.3 µM. Moreover, the TGI with PC-3 prostate was determined as 23.7 µM; in the assay with NCI-H23 lung, 59.2 µM; in the assay on T-47D breast, 62.9 µM; with SR leukemia it was 21 µM.
